How the values were obtained:
Assay type in all cases: in vivo
wild oat (Avena fatua) = assay: Test C postemergence greenhouse test, plant response rating 0-100; settings: for Plant response rating, Oat, Wild: scale 0 to 100
Outline: (§1)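 Postemergence spray onto 1–4-leaf potted seedlings, greenhouse incubation 13–15 days. Visual percent-control rating (0–100) against untreated plants.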

[1] = system: chickweed (common chickweed, Stellaria media); assay: as above; settings: for Plant response rating, Chickweed: scale 0 to 100
Outline: as §1

kochia (Kochia scoparia) = assay: as above; settings: for Plant response rating, Kochia: scale 0 to 100
Outline: as §1

[2] = system: morningglory (Ipomoea spp.); assay: Test A pre-/postemergence greenhouse herbicide test, visual injury rating 0-100; settings: 1000 g ai/ha
Outline: (§2)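 Directed soil spray (pre) and foliar spray (post, 1–2 leaf) of solvent/surfactant-formulated compound; greenhouse ~10 d; visual injury 0–100 vs untreated controls.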

corn (Zea mays) = assay: as above; settings: 1000 g ai/ha
Outline: as §2

[3] = system: pigweed (Amaranthus retroflexus); assay: as above; settings: 1000 g ai/ha
Outline: as §2

[4] = system: giant foxtail (Setaria faberii); assay: as above; settings: 1000 g ai/ha
Outline: as §2

[5] = system: barnyardgrass (Echinochloa crus-galli); assay: as above; settings: 1000 g ai/ha
Outline: as §2

[6] = system: velvetleaf (Abutilon theophrasti); assay: as above; settings: 1000 g ai/ha
Outline: as §2

[7] = system: wheat (Triticum aestivum); assay: as above; settings: 1000 g ai/ha
Outline: as §2

[8] = system: large (Lg) crabgrass (Digitaria sanguinalis); assay: as above; settings: 1000 g ai/ha
Outline: as §2

[9] = system: johnsongrass (Sorghum halepense); assay: Test C pre-/postemergence greenhouse test, plant response rating 0-100
Outline: (§3)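 Scores run from 0, no effect, to 100, complete control, assigned by eye after treated plants and controls spent 13 to 15 days in a greenhouse. Soil-applied treatment went onto freshly sown seed in loam and sand; foliar treatment hit seedlings at the 1- to 4-leaf stage.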

[10] = system: giant foxtail (Setaria faberii); assay: as above
Outline: as §3

[11] = system: winter wheat (Triticum aestivum); assay: as above
Outline: as §3

[12] = Postemergence, 250 g ai/ha, scale 0 to 100
[13] = Postemergence, 500 g ai/ha, scale 0 to 100

Compound: Clc1cc(Cl)cc(-c2n[nH]cc2C(=NNc2ccccc2Cl)c2ccccc2)c1 [Compound 66]
- Plant response rating (0 to 100), Oat, Wild (wild oat (Avena fatua); 62 g ai/ha): 0
- Plant response rating (0 to 100), Oat, Wild (wild oat (Avena fatua); 125 g ai/ha): 0
- Plant response rating, Oat, Wild (wild oat (Avena fatua); 250 g ai/ha): 0
- Plant response rating, Oat, Wild (wild oat (Avena fatua); 500 g ai/ha): 0
- Plant response rating (0 to 100), Chickweed ([1]; 62 g ai/ha): 100
- Plant response rating (0 to 100), Chickweed ([1]; 125 g ai/ha): 100
- Plant response rating, Chickweed ([1]; 250 g ai/ha): 100
- Plant response rating, Chickweed ([1]; 500 g ai/ha): 100
- Plant response rating (0 to 100), Kochia (kochia (Kochia scoparia); 62 g ai/ha): 60
- Plant response rating (0 to 100), Kochia (kochia (Kochia scoparia); 125 g ai/ha): 65
- Plant response rating, Kochia (kochia (Kochia scoparia); 250 g ai/ha): 75
- Plant response rating, Kochia (kochia (Kochia scoparia); 500 g ai/ha): 95
- Plant response rating (0 to 100 scale), Morningglory ([2]; Postemergence): 0
- Plant response rating (0 to 100 scale), Morningglory ([2]; Preemergence): 0
- Plant response rating (0 to 100 scale), Corn (corn (Zea mays); Postemergence): 0
- Plant response rating (0 to 100 scale), Corn (corn (Zea mays); Preemergence): 0
- Plant response rating (0 to 100 scale), Pigweed ([3]; Postemergence): 80
- Plant response rating (0 to 100 scale), Pigweed ([3]; Preemergence): 80
- Plant response rating (0 to 100 scale), Foxtail, Giant ([4]; Postemergence): 0
- Plant response rating (0 to 100 scale), Foxtail, Giant ([4]; Preemergence): 0
- Plant response rating (0 to 100 scale), Barnyardgrass ([5]; Postemergence): 0
- Plant response rating (0 to 100 scale), Barnyardgrass ([5]; Preemergence): 0
- Plant response rating (0 to 100 scale), Velvetleaf ([6]; Postemergence): 90
- Plant response rating (0 to 100 scale), Velvetleaf ([6]; Preemergence): 80
- Plant response rating (0 to 100 scale), Wheat ([7]; Postemergence): 0
- Plant response rating (0 to 100 scale), Wheat ([7]; Preemergence): 0
- Plant response rating (0 to 100 scale), Crabgrass, Large ([8]; Postemergence): 0
- Plant response rating (0 to 100 scale), Crabgrass, Large ([8]; Preemergence): 0
- Plant response rating (0 to 100), Johnsongrass ([9]; Postemergence, 62 g ai/ha): 0
- Plant response rating (0 to 100), Johnsongrass ([9]; Postemergence, 125 g ai/ha): 0
- Plant response rating, Johnsongrass [9, 12]: 0
- Plant response rating, Johnsongrass [9, 13]: 0
- Plant response rating (0 to 100), Foxtail, Giant ([10]; Postemergence, 62 g ai/ha): 0
- Plant response rating (0 to 100), Foxtail, Giant ([10]; Postemergence, 125 g ai/ha): 0
- Plant response rating, Foxtail, Giant [10, 12]: 0
- Plant response rating, Foxtail, Giant [10, 13]: 0
- Plant response rating (0 to 100), Wheat ([11]; Postemergence, 62 g ai/ha): 0
- Plant response rating (0 to 100), Wheat ([11]; Postemergence, 125 g ai/ha): 0
- Plant response rating, Wheat [11, 12]: 0
- Plant response rating, Wheat [11, 13]: 0

Compound: O=C(c1cncc(F)c1)c1c[nH]nc1-c1cc(Cl)cc(Cl)c1 [Compound 19]
- Plant response rating (0 to 100), Oat, Wild (wild oat (Avena fatua); 62 g ai/ha): 0
- Plant response rating (0 to 100), Oat, Wild (wild oat (Avena fatua); 125 g ai/ha): 0
- Plant response rating, Oat, Wild (wild oat (Avena fatua); 250 g ai/ha): 0
- Plant response rating (0 to 100), Chickweed ([1]; 31 g ai/ha): 95
- Plant response rating (0 to 100), Chickweed ([1]; 62 g ai/ha): 80
- Plant response rating (0 to 100), Chickweed ([1]; 125 g ai/ha): 98
- Plant response rating, Chickweed ([1]; 250 g ai/ha): 98
- Plant response rating (0 to 100), Kochia (kochia (Kochia scoparia); 62 g ai/ha): 80
- Plant response rating (0 to 100), Kochia (kochia (Kochia scoparia); 125 g ai/ha): 85
- Plant response rating, Kochia (kochia (Kochia scoparia); 250 g ai/ha): 90
- Plant response rating (0 to 100 scale), Morningglory ([2]; Postemergence): 0
- Plant response rating (0 to 100 scale), Morningglory ([2]; Preemergence): 0
- Plant response rating (0 to 100 scale), Corn (corn (Zea mays); Postemergence): 0
- Plant response rating (0 to 100 scale), Corn (corn (Zea mays); Preemergence): 0
- Plant response rating (0 to 100 scale), Pigweed ([3]; Postemergence): 100
- Plant response rating (0 to 100 scale), Pigweed ([3]; Preemergence): 100
- Plant response rating (0 to 100 scale), Foxtail, Giant ([4]; Postemergence): 0
- Plant response rating (0 to 100 scale), Foxtail, Giant ([4]; Preemergence): 0
- Plant response rating (0 to 100 scale), Barnyardgrass ([5]; Postemergence): 0
- Plant response rating (0 to 100 scale), Barnyardgrass ([5]; Preemergence): 0
- Plant response rating (0 to 100 scale), Velvetleaf ([6]; Postemergence): 100
- Plant response rating (0 to 100 scale), Velvetleaf ([6]; Preemergence): 90
- Plant response rating (0 to 100 scale), Wheat ([7]; Postemergence): 0
- Plant response rating (0 to 100 scale), Wheat ([7]; Preemergence): 0
- Plant response rating (0 to 100 scale), Crabgrass, Large ([8]; Postemergence): 0
- Plant response rating (0 to 100 scale), Crabgrass, Large ([8]; Preemergence): 0
- Plant response rating (0 to 100), Johnsongrass ([9]; Postemergence, 62 g ai/ha): 0
- Plant response rating (0 to 100), Johnsongrass ([9]; Postemergence, 125 g ai/ha): 0
- Plant response rating, Johnsongrass [9, 12]: 0
- Plant response rating, Johnsongrass ([9]; Preemergence, 31 g ai/ha): 0
- Plant response rating, Johnsongrass ([9]; Preemergence, 62 g ai/ha): 0
- Plant response rating, Johnsongrass ([9]; Preemergence, 125 g ai/ha): 0
- Plant response rating, Johnsongrass ([9]; Preemergence, 250 g ai/ha): 0
- Plant response rating (0 to 100), Foxtail, Giant ([10]; Postemergence, 31 g ai/ha): 0
- Plant response rating (0 to 100), Foxtail, Giant ([10]; Postemergence, 62 g ai/ha): 0
- Plant response rating (0 to 100), Foxtail, Giant ([10]; Postemergence, 125 g ai/ha): 5
- Plant response rating, Foxtail, Giant [10, 12]: 5
- Plant response rating, Foxtail, Giant ([10]; Preemergence, 31 g ai/ha): 0
- Plant response rating, Foxtail, Giant ([10]; Preemergence, 62 g ai/ha): 0
- Plant response rating, Foxtail, Giant ([10]; Preemergence, 125 g ai/ha): 0
- Plant response rating, Foxtail, Giant ([10]; Preemergence, 250 g ai/ha): 0
- Plant response rating (0 to 100), Wheat ([11]; Postemergence, 62 g ai/ha): 0
- Plant response rating (0 to 100), Wheat ([11]; Postemergence, 125 g ai/ha): 0
- Plant response rating, Wheat [11, 12]: 0
- Plant response rating, Wheat ([11]; Preemergence, 62 g ai/ha): 0
- Plant response rating, Wheat ([11]; Preemergence, 125 g ai/ha): 0
- Plant response rating, Wheat ([11]; Preemergence, 250 g ai/ha): 0
